Assay [1] has as its system neuronal nicotinic acetylcholine receptors in IMR-32 cells. The assay is described as follows: 86Rb+ efflux assay in IMR-32 neuroblastoma cells. It is filed as cell-based, human. The following applies: for IMR-32 % max: maximal response, percent relative to 100 μM (S)-nicotine; for IMR-32 % Inhibition @ 10 μM / IMR-32 % Inhibition @ (30 μM): inhibition of efflux elicited by 100 μM (S)-nicotine. How it is done: (§1) B. Protocols for the Determination of Functional Effects of Nicotinic Acetylcholine Receptor Ligands on Synaptic Transmission
Experimental cells were seeded at a density of 500,000 cells/mL into a 24-well tissue culture dish. Plated cells were allowed to proliferate for at least 48 hours before loading with 2 μCi/mL of ^86 Rb^+ (35 Ci/mmol) overnigh at 37° C.

Assay [2] addresses T1, α4 and β2 nicotinic acetylcholine subunits (K177 cells) (Homo sapiens, UniProt P17787+P43681).
T1 construct: expressed in transfected cells
The assay is described as follows: 86Rb+ efflux assay in K177 cells (HEK 293 stably transfected with α4 and β2 nicotinic acetylcholine subunits). It counts as cell-based. The procedure: as §1
Cells of the IMR-32 human neuroblastoma clonal cell line (ATCC, Rockville, Md.) were maintained in a log phase of growth according to established procedures (Lukas, R. J., J. Pharmacol. Exp. Ther., 265: 294-302, 1993). Experimental cells were seeded at a density of 500,000 cells/mL into a 24-well tissue culture dish. Plated cells were allowed to proliferate for at least 48 hours before loading with 2 μCi/mL of ^86 Rb^+ (35 Ci/mmol) overnigh at 37° C. The ^86 Rb^+ efflux assays were performed according to previously published protocols (Lukas, 1993) except serum-free Dulbecco's Modified Eagle's Medium was used during the ^86 Rb^+ loading, rinsing, and agonist-induced efflux steps.
Cells of the K177 cell line, resulting from stable transfection of the human embryonic kidney (HEK) 293 cell line with the cDNA of the α4 and β2 nicotinic acetylcholine subunits (Gopalakrishnan, et al, J. Pharmacol. Expt. Ther. 1996, 276, 289-297), were maintained in a log phase of growth according to established procedures (Gopalakrishnan, et al., loc. cit.). The cells were plated onto poly-lysine coated 24-well Costar plates (Cambridge, Mass.) at a density of 250,000 cells/well. When confluent, the cells were loaded with ^86 Rb^+ and agonist-induced efflux was assessed as reported above for IMR-32 cells.
Maximal responses (reported as percent relative to the response elicited by 100 μM (S)-nicotine) are shown for selected compounds of the invention. The inhibition data (given for other selected compounds) reflect inhibition of the efflux elicited by 100 μM (S)-nicotine at the indicated concentration. […] This finding is in agreement with the results of others who have linked dopamine release, which is dependent upon the ion flux in synaptic transmission, to binding at nicotinic receptors (cf., for example, Lippiello and Caldwell, U.S. Pat. No. 5,242,935, issued Sept. 7, 1993; Caldwell and Lippielo, U.S. Pat. No. 5,248,690, issued Sept. 28, 1993; and Wonnacott et al., Prog. Brain Res; 79: 157-163 (1989)).

Assay [3] deals with neuronal nicotinic acetylcholine receptors. The assay is described as follows: [3H]-cytisine ligand-receptor binding assay (crude synaptic membranes from whole rat brain). The following applies: for binding to the nicotinic acetylcholine receptor (in words): preferred compounds. How it is done: For the purpose of identifying compounds as nicotinic acetylcholinergic agents which are capable of interacting with neuronal nicotinic acetylcholine receptors in the brain, a ligand-receptor binding assay was carried out as the initial screen. Compounds of the present invention were effective at interacting with neuronal nicotinic acetylcholine receptors as assayed for their ability to displace radioligand from neuronal nicotinic acetylcholine receptors labeled with [^3 H]-cytisine ([^3 H]-CYT).
A. Protocol For Determination of Nicotinic Acetylcholine Receptor Binding Potencies of Ligands
Binding of [^3 H]-CYT to nicotinic acetylcholine receptors was accomplished using crude synaptic membrane preparations from whole rat brain (Pabreza et al., Molecular Pharmacol., 1990, 39:9). Washed membranes were stored at -80° C. prior to use. Frozen aliquots were slowly thawed and resuspended in 20 volumes of buffer (containing: 120 mM NaCl, 5 mM KCl, 2 mM MgCl2, 2 mM CaCl2 and 50 mM Tris-Cl, pH 7.4 @4° C.). After centrifuging at 20,000×g for 15 minutes, the pellets were resuspended in 30 volumes of buffer. Homogenate (containing 125-150 μg protein) was added to triplicate tubes containing concentrations of test compound and [^3 H]-CYT (1.25 nM) in a final volume of 500 μL. Samples were incubated for 60 minutes at 4° C., then rapidly filtered through Whatman GF/B filters presoaked in 0.5% polyethylimine using 3×4 mL of ice-cold buffer. The filters were counted in 4 mL of Ecolume® (ICN). Nonspecific binding was determined in the presence of 10 μM (-)-nicotine and values were expressed as a percentage of total binding.

The mark [4] stands for this setting: K177, Table 1, maximal response, percent relative to 100 μM (S)-nicotine, read-out: K177 % max.
The mark [5] stands for this setting: Table 1, [3H]-cytisine 1.25 nM, 4° C., 60 min, Ki by Cheng and Prusoff, read-out: [^3 H]-Cyt Binding.
The mark [6] stands for this setting: K177, Table 1, inhibition of efflux elicited by 100 μM (S)-nicotine, 10 μM, read-out: K177 % Inhibition @ 10 μM.

Each structure is given as a SMILES string. Counter-ions that a name gives are not always drawn. Like-named read-outs stand apart in the source and are kept apart here.

T1 sequence (P43681 29-627 limits assumed): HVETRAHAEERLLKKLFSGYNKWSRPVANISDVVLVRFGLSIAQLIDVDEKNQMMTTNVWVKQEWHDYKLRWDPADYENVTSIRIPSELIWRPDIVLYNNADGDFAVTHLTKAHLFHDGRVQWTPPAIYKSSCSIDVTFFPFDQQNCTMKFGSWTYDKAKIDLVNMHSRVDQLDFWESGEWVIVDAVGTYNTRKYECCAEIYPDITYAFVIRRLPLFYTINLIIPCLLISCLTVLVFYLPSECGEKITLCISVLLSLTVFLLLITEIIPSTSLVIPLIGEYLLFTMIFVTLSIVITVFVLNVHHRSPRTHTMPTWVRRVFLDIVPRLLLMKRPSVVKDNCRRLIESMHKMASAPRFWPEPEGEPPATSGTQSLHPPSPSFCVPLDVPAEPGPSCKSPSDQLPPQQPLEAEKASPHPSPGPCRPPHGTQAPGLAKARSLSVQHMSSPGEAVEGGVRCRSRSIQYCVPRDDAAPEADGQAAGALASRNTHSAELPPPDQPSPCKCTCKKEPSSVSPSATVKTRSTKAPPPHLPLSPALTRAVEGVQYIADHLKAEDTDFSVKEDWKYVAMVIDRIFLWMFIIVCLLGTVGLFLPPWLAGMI
T1 sequence (P17787 26-502): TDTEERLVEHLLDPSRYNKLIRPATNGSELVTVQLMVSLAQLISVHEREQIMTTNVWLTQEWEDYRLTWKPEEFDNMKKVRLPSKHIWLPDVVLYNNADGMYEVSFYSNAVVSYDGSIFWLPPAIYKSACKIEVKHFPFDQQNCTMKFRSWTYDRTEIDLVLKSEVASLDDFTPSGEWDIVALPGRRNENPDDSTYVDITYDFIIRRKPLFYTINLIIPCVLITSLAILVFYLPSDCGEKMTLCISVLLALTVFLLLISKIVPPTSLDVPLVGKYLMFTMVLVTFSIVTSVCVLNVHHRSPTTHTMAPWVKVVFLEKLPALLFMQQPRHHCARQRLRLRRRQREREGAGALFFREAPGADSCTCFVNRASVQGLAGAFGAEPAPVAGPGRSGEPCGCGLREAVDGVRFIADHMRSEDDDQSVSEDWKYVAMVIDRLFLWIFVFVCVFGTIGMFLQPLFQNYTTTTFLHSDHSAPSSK

Regarding `CN1CCC[C@H]1c1cc2nc(Cl)ccc2o1` [Example 12, 5-chloro-2-(1-methyl-2-(S)-pyrrolidinyl)-furo[3,2-b]pyridinehydrochloride], in assay [1] (Table 1), the IMR-32 % max worked out at 11%. Moreover, the Emax in assay [2] (setting [4]) came out at 41%. Besides, the Ki in assay [3] (setting [5]) was 4.1 nM.
With `CN1CCC[C@@H]1c1cc2ncccc2o1` [Example 4, 2-(1-methyl-2-(R)-pyrrolidinyl)furo[3,2-b]pyridine dihydrochloride], in assay [2] (setting [4]), the Emax is 63%. For the same compound, the Ki in assay [3] (setting [5]) stood at 17.5 nM.
On to `CN1CCC[C@H]1c1cc2nc(Cl)c(Br)cc2o1.Cl.Cl` [Example 48, 6-bromo-5-chloro-2-(1-methyl-2-(S)-pyrrolidinyl)furo[3,2-b]pyridine dihydrochloride], for which, in assay [1] (Table 1), the “IMR-32 % Inhibition @ 10 μM” value was found to be 0% and the IMR-32 % max is given as 6%. Further, in assay [2] (setting [4]), the Emax was found to be 0%. Besides, the Ki in assay [3] (setting [5]) was 1.3 nM.
For the compound `Clc1cnc2cc([C@H]3CCCN3)oc2c1` [Example 31, 6-chloro-2-(2-(R)-pyrrolidinyl)-furo[3,2-b]pyridine hydrochloride], the inhibition at 10 µM in assay [2] (setting [6]) is 41%. In addition, the Emax in assay [2] (setting [4]) stood at 13%. Besides, the Ki in assay [3] (setting [5]) came out at 9.8 nM.
Compound `Brc1ccc2oc([C@@H]3CCCN3)cc2n1.Cl` [Example 28, 5-bromo-2-(2-(S)-parrolidinvy)-furo[3,2-b]pyridine hydrochloride] registered a K177 % max in assay [2] (Table 1, maximal response, percent relative to 100 μM (S)-nicotine) of 20%. Also, the Ki in assay [3] (setting [5]) was 4.8 nM.
As to `Brc1ccc2oc([C@H]3CCCN3)cc2n1` [Example 33, 5-bromo-2-(2-(R)-pyrrolidinyl)-furo[3,2-b]pyridine hydrochloride], in assay [1] (Table 1), the “IMR-32 % Inhibition @ 10 μM” value was 8% and the IMR-32 % max came out at 0%. Moreover, the Emax in assay [2] (setting [4]) was 0%.
For the compound `CN1CCC[C@H]1c1cc2ncc(Cl)cc2o1` [Example 8, 6-chloro-2-(1-methyl-2-(S)-pyrrolidinyl)-furo[3,2-b]pyridinedihydrochloride], in assay [1] (Table 1), the “IMR-32 % Inhibition @ 10 μM” value worked out at 9% and the IMR-32 % max was 0%. Besides, in assay [2] (K177, read-out: K177 % Inhibition @ 10 μM), the inhibition at 10 µM turned out to be 45%. Moreover, the Emax in assay [2] (K177, read-out: K177 % max) amounted to 3%. The Ki in assay [3] (setting [5]) is 27 nM.
Consider `Cc1ccc2oc([C@@H]3CCCN3C)cc2n1.Cl.Cl` [Example 6, 2-(1-methyl-2-(S)-pyrrolidinyl)-5-methylfuro[3,2-b]pyridine dihydrochloride], for which, in assay [1] (Table 1), the “IMR-32 % Inhibition @ 10 μM” value worked out at 4%. Also, the Emax in assay [2] (setting [4]) was 68%. For the same compound, the Ki in assay [3] (setting [5]) came out at 4.7 nM.
With `CN1CCC[C@H]1c1cc2nc(Cl)c(Cl)cc2o1.Cl` [Example 26, 5,6-Dichloro-2-(1-methyl-2-(S)-pyrrolidinyl)furo[3,2-b]pyridine hydrochloride], in assay [1] (Table 1), the “IMR-32 % Inhibition @ 10 μM” value was 38% and the IMR-32 % max stood at 7%. Also, the inhibition at 10 µM in assay [2] (setting [6]) turned out to be 53%. Moreover, the Emax in assay [2] (setting [4]) was 6%. Moreover, in assay [3] (setting [5]), the Ki was 0.66 nM. In assay [3], the “binding to the nicotinic acetylcholine receptor (in words)” value is given as “most potent binders”.
In the case of `CN1[C@@H]2CC[C@@H](C2)[C@H]1c1cc2ncccc2o1` [Example 42, 2-((1R,4S)-2-aza-3-(S)-bicyclo[2.2.1]heptyl)-2-methylfuro[3,2-b]pyridil dihydrochloride], the IMR-32 % max in assay [1] (Table 1) is 24%. Besides, the Emax in assay [2] (setting [4]) was 29%. Moreover, the Ki in assay [3] (setting [5]) amounted to 4.7 nM.
Consider `Cl.Clc1cc2oc([C@H]3CCCN3)cc2nc1Cl` [Example 39, 5,6-Dichloro-2-(2-(R)-pyrrolidinyl)furo[3,2-b]pyridine hydrochloride], for which, in assay [1] (Table 1), the “IMR-32 % Inhibition @ 10 μM” value is 25% and the IMR-32 % max is 4%. In addition, in assay [2] (setting [4]), the Emax was 39%. Also, the Ki in assay [3] (setting [5]) is 1.1 nM.
On to `Cl.Cl.c1cnc2cc([C@@H]3CCCN3)oc2c1` [Example 2, 2-(2-(S)-pyrrolidinyl)furo[3,2-b]pyridine dihydrochloride], for which the “IMR-32 % Inhibition @ 10 μM” value in assay [1] (Table 1) was 24%. Besides, the Emax in assay [2] (setting [4]) came to 0%. In assay [3] (setting [5]), the Ki came out at 76 nM.
As for `CN1CCC[C@H]1c1cc2ncccc2o1.Cl.Cl` [Example 1, 2-(1-methyl-2-(S)-pyrrolidinyl)furo[3,2-b]pyridine dihydrochloride], in assay [1] (Table 1), the “IMR-32 % Inhibition @ (30 μM)” value was 16% and the IMR-32 % max came out at 7%. Moreover, in assay [2] (setting [4]), the Emax amounted to 79%. In addition, the Ki in assay [3] (setting [5]) came out at 2.7 nM.
`Cl.Clc1cc2oc(C34CCCN3CCC4)cc2nc1Cl` [Example 38, 2-(Hexahydro-1H-7a-pyrrolizinyl)-5,6-dichlorofuro[3,2-b]pyridine hydrochloride]: in assay [1] (Table 1), the “IMR-32 % Inhibition @ 10 μM” value is given as 10% and the IMR-32 % max stood at 12%. In assay [2] (setting [4]), the Emax is 0%. Further, the Ki in assay [3] (setting [5]) was found to be 0.33 nM.
With `Cl.c1cnc2cc(C34CCCN3CCC4)oc2c1` [Example 15, 2-(Hexahydro-1H-7a-pyrrolizinyl)furo[3,2-b]pyridine hydrochloride], the IMR-32 % max in assay [1] (Table 1) is listed as 43%. The Emax in assay [2] (setting [4]) stood at 9%. Further, the Ki in assay [3] (setting [5]) was determined as 0.45 nM. Further, the “binding to the nicotinic acetylcholine receptor (in words)” value in assay [3] was “most potent binders”.
As to `Clc1nc2cc([C@H]3CCCN3)oc2cc1-c1ccccc1` [Example 55, 2-(2-(R)-pyrrolidinyl)-5-chloro-6-phenyl furo[3,2-b]pyridinehydrochloride], in assay [1] (Table 2), the IMR-32 % max is given as 32%. Also, the Ki in assay [3] (Table 2, [3H]-cytisine binding, read-out: Binding) stood at 0.16 nM. Moreover, in assay [3] (Tables 1 and 2), the “in vitro binding (in words)” value was “potent in vitro binding”. Besides, the “binding to the nicotinic acetylcholine receptor (in words)” value in assay [3] was “most potent binders”.
As for `Clc1ccc2oc([C@H]3CCCN3)cc2n1` [Example 35, 5-chloro-2-(2-(R)-pyrrolidinyl)-furo[3,2-b]pyridine hydrochloride], in assay [2] (setting [4]), the Emax came out at 61%. Besides, the Ki in assay [3] (setting [5]) came to 1.1 nM.
In the case of `c1cnc2cc(C34CCCN3CCC4)sc2c1` [Example 24, 2-(Hexahydro-1H-7a-pyrrolizinyl)thieno[3,2-b]pyridine hydrochloride], in assay [2] (setting [6]), the inhibition at 10 µM was found to be 60%. Also, in assay [2] (setting [4]), the Emax amounted to 14%. Further, in assay [3] (setting [5]), the Ki is 2 nM.
Consider `c1cnc2cc([C@@H]3CC[C@@H]4CCCN43)oc2c1` [Example 21, endo-2-(Hexahydro-1H-3-(S)-pyrrolizinyl)furo[3,2-b]pyridine dihydrochloride], for which, in assay [1] (Table 1), the “IMR-32 % Inhibition @ (30 μM)” value stood at 50% and the IMR-32 % max came out at 0%. Further, the Ki in assay [3] (setting [5]) is 3300 nM.
`Cl.Cl.c1cc2cc([C@H]3CCCN3)oc2cn1` [Example 34, 2-(2-(R)-pyrrolidinyl)furo[2,3-c]pyridine dihydrochloride]: the “IMR-32 % Inhibition @ 10 μM” value in assay [1] (Table 1) turned out to be 2.8%. The Ki in assay [3] (setting [5]) is 1710 nM.
On to `Cl.Clc1nc2cc([C@H]3CCCN3)oc2cc1Br` [Example 49, 6-bromo-5-chloro-2-(2-(R)-pyrrolidinyl)furo[3,2-b]pyridine hydrochloride], for which, in assay [1] (Table 1), the “IMR-32 % Inhibition @ 10 μM” value was 10% and the IMR-32 % max amounted to 1%. Further, the Ki in assay [3] (setting [5]) amounted to 2.6 nM.

One may read the inhibition as the change of the read-out against control, counted positive when it falls.

The record behind these values is patent US6001849A, “Furopyridine, thienopyridine pyrrolopyridine useful in controlling chemical synaptic transmission” (Abbott Laboratories, priority 1997, dated 1999).
